Results from patent US8853242B2, “Nitrogenous-ring acylguanidine derivative” (Astellas Pharma Inc., priority 2009, dated 2014).

Experiments:
human 5-HT5A receptor = human 5-HT5A receptor (Homo sapiens (Human), UniProt P47898); test: Test on a human 5-HT5A receptor binding inhibition ([3H]5-CT); conditions: membrane from HEK293 cells expressing human 5-HT5A receptor, Ki calculated from IC50
Method: The ORF (open reading frame; protein coding region) of a human 5-HT5A receptor (Genbank AF498985) was cloned from a human hippocampus cDNA library, and then inserted into a pCR2.1 vector (Invitrogen), and Escherichia coli containing the plasmid was cultured in a large amount. Next, the full-length cDNA sequence of the human 5-HT5A receptor was analyzed, and recombined into a pCDNA3.1 vector (Invitrogen) as an expression vector and cultured in a large amount. HEK293 established cells (ATCC) derived from the human fetal kidney were seeded, the expression plasmid (1 μg) obtained above were added thereto with LIPOFECTAMINE 2000 (Invitrogen; 2 μl), the gene was transfected into HEK293 cells, and the expression cells were screened with a drug-resistant marker, Geneticin (G418 sulfate 500 μg/ml; Kanto Chemical Co., Inc.). Thus prepared recombinant cells which expressed the gene were cultured in a medium containing D-MEM (Dulbecco's modified eagle medium, Sigma), 10% FCS (Fetal calf serum: fetal bovine serum), 1% Pc./Sm (Penicillin/Streptomycin, Invitrogen), and 500 μg/ml G418 for 3 days. These experimental operations followed a manual for gene operation experiment and an instruction appended in a reagent, and the like, such as a known method (Sambrook, J. et al, Molecular Cloning-A Laboratory Manual”, Cold Spring Harabor laboratory, NY, 1989).
HEK293 cells for forced expressions of a human 5-HT5A receptor were cultured in a F500 plate, and scraped with a scraper. After centrifugation, the precipitate was collected, and an incubation buffer (50 mM Tris (HCl) (pH 7.4), 10 mM MgSO4, and 0.5 mM EDTA (ethylenediamine tetraacetic acid)) was added thereto. After homogenization, it was further centrifuged, and the incubation buffer was added to the precipitate, followed by thoroughly suspending. The operation was repeated, and protein concentration was measured, thereby completing preparation of the membrane.
A solution of the compound to be tested and 100 μM 5-CT (5-carboxamidetriptamine) in DMSO was added to a 96-well plate at 2 μl/well, suspended in an incubation buffer, and a membrane from HEK293 cells for forced expressions of a human 5-HT5A receptor prepared at 200 μg/ml was added at 100 μl/well. After incubation at room temperature for 15 minutes, a [^3H]5-CT solution (2 nM [^3H]5-CT, incubation buffer) was added thereto at 100 μl/well.
Separately, 100 μl of the solution was distributed into a liquid scintillation vial, and 2 ml of Aquasol II (registered trademark) was added thereto, followed by stirring. Then, radioactivity was measured by a liquid scintillation counter. It was incubated at 37° C. for 60 minutes. The reaction mixture was sucked into 96-well GF/C filter plate that had been pre-treated with 0.2% polyethyleneimine, and washed six times with an ice-cooled, 50 mM Tris (pH 7.5) buffer. The GF/C filter plate was dried.
Microscint TMPS (registered trademark) was added thereto at 40 μl/well. Radioactivity remaining on the GF/C filter plate was measured by a top counter.
The [^3H]5-CT binding inhibiting activity by the compound to be tested in each experiment was determined as an IC50 value with a radioactivity upon addition of DMSO alone being 0% inhibition, and a radioactivity upon addition of 1 μM 5-CT being 100% inhibition. Separately, Ki values were calculated from the Kd value of the [^3H]5-CT determined from Scatchard analysis, by the following equation. Ki=IC50(1+Concentraion of ligand added/Kd(4.95 nM))

Male ICR mouse [1] = test: Hyperactivity (quantity of motion) induced by MK-801 in mice; type: in vivo; conditions: MK-801 0.3 mg/kg, P<0.05
Method: (§1) The improvement effect of compound of formula (I) on schizophrenia was evaluated by measuring the quantity of motion inhibited by administration of the compound in a model in which the symptoms were induced by methamphetamine (hereinafter abbreviated as MAP) and MK-801.
(§2) The animal was taken out of a breeding cage, orally administered with a test compound, and then placed into a cage for breeding. After 30 minutes, the animal was put into a cage for measurement, and the quantity of motion with the test compound alone was measured. Further, after 30 to 90 minutes, the animal was taken out, and subcutaneously or intraperitoneally administered with a drug for increasing the quantity of motion (MAP; 1.5 mg/kg or MK-801; 0.3 mg/kg, dissolved in physiological saline, respectively). Then, the quantity of motion for a certain period of time (60 minutes) was measured using a device for measuring the quantity of motion (CompACT AMS manufactured by Muromachi Kikai Co., Ltd.) by means of an infrared sensor.
(§3) For a normal mouse (a mouse administered with physiological saline) and a mouse administered with a drug for increasing the quantity of motion, a Student's T test was performed for evaluation for each interval. For a group administered with the test compound, an assay was performed using a solvent (vehicle) group and a Dunnett's T test. For the evaluation, if there was a significant difference (P<0.05), it was considered that there is an effect.

Male ddY mouse = test: Spontaneous alternation behavior (Y-maze) induced by Scoporamine in mice; type: in vivo; conditions: Scoporamine 0.5 mg/kg i.p.
Method: The improvement effect of compound of formula (I) on cognitive impairment of dementia and schizophrenia was evaluated by a known test method as a model with short-term learning disorder.
After 10 to 30 minutes from oral administration of the test compound, 0.5 mg/kg of Scoporamine or 0.15 mg/kg of MK-801 (in the case of a normal group, physiological saline was administered) was intraperitoneally administered. After 20 minutes, the test was conducted. In addition, solvent (vehicle) was orally administered to the normal group (to which physiological saline was administered) and to the control group (to which 0.5 mg/kg of Scoporamine or 0.15 mg/kg of MK-801 was administered), when the test compound was administered.
A mouse was placed at the end of one arm of a Y-maze having arms with the same length in three directions, and then allowed to explore freely and the number of arm entries was counted for 8 minutes. Further, spontaneous alternation behavior was defined as entries into all three different arms on consecutive occasions, and the ratio of the number of instances of this behavior to the total number of the entries was calculated as an alternation rate by the following formula: Alternation rate(%)=Number of spontaneous alternation behaviors/(Total number of entries−2)×100.
If a significant difference between the normal group and the control group (Student's T test) was approved in the alternation rate (%), it was considered to have learning disorder by the administration of Scoporamine or MK-801. By carrying out a Dunnett's test on the group administered with the test compound with respect to the control group, the presence or absence of effect of the test compound on learning disorder was evaluated. For each assay, it was considered that there was a tendency when p<0.10 and there was a significant difference when p<0.05.

Male ICR mouse [2] = test: Hyperactivity (quantity of motion) induced by methamphetamine (MAP) in mice; type: in vivo; conditions: oral dose 0.1 mg/kg; MAP 1.5 mg/kg; P<0.05
Method: as §1, §2
as §3, with “For the evaluation, if there was a significant difference (P<0.05), it was considered that there is an effect.” left out

human 5-HT5A receptor, sequence (P47898 whole entry): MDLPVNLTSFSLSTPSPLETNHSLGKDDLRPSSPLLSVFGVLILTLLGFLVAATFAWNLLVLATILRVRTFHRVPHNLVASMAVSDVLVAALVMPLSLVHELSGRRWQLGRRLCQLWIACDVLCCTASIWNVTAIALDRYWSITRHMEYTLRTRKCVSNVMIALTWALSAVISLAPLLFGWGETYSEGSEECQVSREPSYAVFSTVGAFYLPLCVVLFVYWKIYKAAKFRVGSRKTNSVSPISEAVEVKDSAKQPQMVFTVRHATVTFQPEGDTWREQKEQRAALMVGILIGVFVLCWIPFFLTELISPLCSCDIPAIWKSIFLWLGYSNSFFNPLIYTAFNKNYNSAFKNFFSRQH

Row | SMILES | Ki (human 5-HT5A receptor; [3H]5-CT binding) [nM] | further results
1 | NC(N)=NC(=O)c1ccc2c(F)cnc(-c3ccccc3F)c2c1 [Example 160] | – | Ki (human 5-HT5A receptor; [3H]5-CT binding inhibition): 3.3 nM; hyperactivity induced by MK-801 (Male ICR mouse [1]; oral dose 0.01 mg/kg): significantly inhibited; spontaneous alternation behavior induced by Scoporamine (Male ddY mouse; oral dose 0.001 mg/kg): significantly inhibited
2 | Cc1cnc(-c2ccccc2F)c2cc(C(=O)N=C(N)N)ccc12 [Example 192] | 1 to 10 | Ki (human 5-HT5A receptor; [3H]5-CT binding inhibition): 1.8 nM; hyperactivity induced by MK-801 (Male ICR mouse [1]; oral dose 0.01 mg/kg): significantly inhibited; spontaneous alternation behavior induced by Scoporamine (Male ddY mouse; oral dose 0.003 mg/kg): significantly inhibited
3 | NC(N)=NC(=O)c1ccc2c(F)cnc(-c3c(F)cccc3F)c2c1 [Example 148] | – | Ki (human 5-HT5A receptor; [3H]5-CT binding inhibition): 1.4 nM; hyperactivity induced by MK-801 (Male ICR mouse [1]; oral dose 0.03 mg/kg): significantly inhibited; hyperactivity induced by MAP (Male ICR mouse [2]): significantly inhibited; spontaneous alternation behavior induced by Scoporamine (Male ddY mouse; oral dose 0.01 mg/kg): significantly inhibited
4 | NC(N)=NC(=O)c1ccc2c(F)cnc(-c3c(F)cncc3F)c2c1 [Example 157] | 1 to 10 | Ki (human 5-HT5A receptor; [3H]5-CT binding inhibition): 5.3 nM; hyperactivity induced by MK-801 (Male ICR mouse [1]; oral dose 0.03 mg/kg): significantly inhibited; spontaneous alternation behavior induced by Scoporamine (Male ddY mouse; oral dose 0.001 mg/kg): significantly inhibited
5 | NC(N)=NC(=O)c1ccc2ncc(Cl)c(-c3ccc(F)cc3)c2c1 [Example 73] | 1 to 10 | hyperactivity induced by MK-801 (Male ICR mouse [1]; oral dose 0.1 mg/kg): significantly inhibited
6 | COc1cc(F)c(-c2ccnc3c(C)cc(C(=O)N=C(N)N)cc23)c(F)c1 [Example 58] | 1 to 10 | –
7 | COc1cc(C#N)ccc1-c1ccnc2ccc(C(=O)N=C(N)N)cc12 [Example 36] | 10 to 100 | –
8 | CCc1cnc(-c2c(F)cccc2F)c2cc(C(=O)N=C(N)N)ccc12 [Example 172] | 1 to 10 | –
9 | Cc1cnc2ccc(C(=O)N=C(N)N)cc2c1-c1c(F)cc(F)cc1Cl [Example 23] | 1 to 10 | –
10 | Cc1cc(-c2c(F)cc(F)cc2F)c2cc(C(=O)N=C(N)N)cc(C)c2n1 [Example 83] | 1 to 10 | –
11 | Cc1nc2ccc(C(=O)N=C(N)N)cc2c(-c2ccc(F)cc2Cl)c1Cl [Example 132] | 1 to 10 | –
12 | Cc1nc2ccc(C(=O)N=C(N)N)cc2c(-c2c(F)cccc2F)c1C [Example 117] | 1 to 10 | –
13 | COc1cc(Cl)ccc1-c1ncc(F)c2ccc(C(=O)N=C(N)N)cc12 [Example 204] | 10 to 100 | –
14 | COc1cc(Cl)ccc1-c1ccnc2c(C)cc(C(=O)N=C(N)N)cc12 [Example 77] | 1 to 10 | –
15 | NC(N)=NC(=O)c1ccc2nc(C(F)(F)F)cc(-c3c(F)cc(F)cc3F)c2c1 [Example 90] | 10 to 100 | –
16 | Cc1cc(C(=O)N=C(N)N)cc2c(-c3ccc(F)cc3F)ccnc12 [Example 44] | 1 to 10 | –
